From patent US20230203081A1, “LINCOSAMIDE ANTIBIOTICS AND USES THEREOF” (President and Fellows of Harvard College, priority 2020, published 2023)

What was measured:
Type in all cases: cell-based
A. baumannii ATCC 19606 = assay: MIC (broth microdilution or agar dilution, CLSI); conditions: A. baumanii HAV#010, ATCC 19606
In short: (§1)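 Isolates other than streptococci and anaerobes, which had their own procedures, were grown overnight at 35° C on tryptic soy agar with 5% sheep blood. Suspensions were then diluted to a final inoculum of 5×10^5 CFU/mL in broth microdilution wells.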

[1] = tested on: broad panel of different clinical isolates; assay: organism not typed
In short: as §1

E. faecium Line R & VRE = assay: MIC (broth microdilution or agar dilution, CLSI); conditions: E. faecium HAV#319, Line R & Vanco R
In short: (§2)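 Following CLSI guidelines, broth microdilution or agar dilution spans usually 128-0.06 μg/mL (2.5% DMSO final), triplicate runs, clindamycin comparator. Inocula for broth work are 5×10^5 CFU/mL in cation-adjusted Mueller-Hinton; anaerobic strains get specialized handling.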

P. aeruginosa ATCC 27853 = assay: MIC (broth microdilution or agar dilution, CLSI); conditions: P. aeruginosa HAV#009, ATCC 27853
In short: as §2

P. aeruginosa ΔAmex OprM = assay: MIC (broth microdilution or agar dilution, CLSI); conditions: P. aeruginosa HAV#039; ΔAmex OprM
In short: as §2

## Gentamicin
A. baumannii ATCC 19606
  MIC: >64 µg/mL
[1]; A. baumannii HAV#651, Clinical
  MIC: 2 µg/mL
[1]; A. baumannii HAV#652 Clinical
  MIC: 16 µg/mL
[1]; A. baumannii HAV#653, Clinical
  MIC: 0.5 µg/mL
[1]; A. baumannii HAV#654, Clinical
  MIC: 2 µg/mL
[1]; A. baumannii HAV#655, Clinical
  MIC: 2 µg/mL
[1]; A. baumannii HAV#656, Clinical
  MIC: 4 µg/mL
[1]; A. baumannii HAV#657, Clinical
  MIC: 4 µg/mL
[1]; A. baumannii HAV#658, Clinical
  MIC: 1 µg/mL
[1]; A. baumannii HAV#659, Clinical
  MIC: 32 µg/mL
[1]; A. baumannii HAV#660, Clinical
  MIC: 32 µg/mL
[1]; A. baumannii HAV#661, Clinical
  MIC: 1 µg/mL
[1]; A. baumannii HAV#662, Clinical
  MIC: 4 µg/mL
[1]; A. baumannii HAV#663, Clinical
  MIC: 0.5 µg/mL
[1]; A. baumannii HAV#664, Carbapenem R
  MIC: >128 µg/mL
[1]; E. coli HAV#501, Clinical
  MIC: 2 µg/mL
[1]; E. coli HAV#503, Clinical
  MIC: 4 µg/mL
[1]; E. coli HAV#511, Clinical
  MIC: 16 µg/mL
[1]; E. coli HAV#512, Clinical
  MIC: 2 µg/mL
[1]; E. coli HAV#513, Clinical
  MIC: 2 µg/mL
[1]; E. coli HAV#514, Clinical
  MIC: 1 µg/mL
[1]; E. coli HAV#516, ESBL-producing
  MIC: 2 µg/mL
[1]; E. faecalis HAV#251, Clinical VRE
  MIC: 16 µg/mL
[1]; E. faecalis HAV#606, Clinical, VRE
  MIC: >256 µg/mL
[1]; E. faecalis HAV#607, Clinical
  MIC: >256 µg/mL
[1]; E. faecalis HAV#608, Clinical
  MIC: >256 µg/mL
[1]; E. faecalis HAV#609, Clinical
  MIC: >256 µg/mL
[1]; E. faecalis HAV#610, Clinical
  MIC: >256 µg/mL
[1]; E. faecalis HAV#611, Line R & Vanco R
  MIC: >128 µg/mL
[1]; E. faecalis HAV#612, Line R
  MIC: >128 µg/mL
[1]; E. faecium HAV#317, Clinical
  MIC: 16 µg/mL
[1]; E. faecium HAV#318, VanA, VRE
  MIC: 8 µg/mL
[1]; E. faecium HAV#324, Clinical
  MIC: >256 µg/mL
[1]; E. faecium HAV#327, Clinical
  MIC: 8 µg/mL
[1]; E. faecium HAV#328, Clinical
  MIC: >256 µg/mL
[1]; E. faecium HAV#329, Clinical
  MIC: 4 µg/mL
[1]; H. influenzae HAV#376, ATCC-9007
  MIC: 4 µg/mL
[1]; K. pneumoniae HAV#041, Clinical, KPC
  MIC: 8 µg/mL
[1]; K. pneumoniae HAV#404, Clinical
  MIC: 0.5 µg/mL
[1]; K. pneumoniae HAV#405, Clinical
  MIC: 0.5 µg/mL
[1]; K. pneumoniae HAV#406, Clinical
  MIC: 1 µg/mL
[1]; K. pneumoniae HAV#407, Clinical
  MIC: 0.5 µg/mL
[1]; K. pneumoniae HAV#408, Clinical
  MIC: 2 µg/mL
[1]; K. pneumoniae HAV#409, ESBL-producing
  MIC: 0.5 µg/mL
[1]; S. aureus HAV#017, MRSA Col(Colindale, England)
  MIC: 0.5 µg/mL
[1]; S. aureus HAV#051, mecA, norA, spcl, ermA, aad1, aac6′-aph2″
  MIC: 2 µg/mL
[1]; S. aureus HAV#052, mecA, norA, fosB, blaZ
  MIC: 1 µg/mL
[1]; S. aureus HAV#053 mecA, norA, fosB
  MIC: 1 µg/mL
[1]; S. aureus HAV#054, mecA, norA, spcl, aad1, fosB, ermA, aac6′-aph2″, blaZ
  MIC: 128 µg/mL
[1]; S. aureus HAV#203, Clinical (VISA)
  MIC: >64 µg/mL
[1]; S. aureus HAV#216, Clinical, cfr
  MIC: 8 µg/mL
[1]; S. aureus HAV#217, cfr
  MIC: 4 µg/mL
[1]; S. epidermidis HAV# 275 Clinical, cfr
  MIC: >64 µg/mL
[1]; S. epidermidis HAV# 276, cfr
  MIC: >64 µg/mL
[1]; S. haemolyticus HAV#252, Line R & Methicillin R
  MIC: >128 µg/mL
E. faecium Line R & VRE
  MIC: 64 µg/mL
P. aeruginosa ATCC 27853
  MIC: >64 µg/mL
P. aeruginosa ΔAmex OprM
  MIC: >64 µg/mL
